{"source": "patent US12295936B2", "about": "“Immunomodulating urea azalides” (Zoetis Services LLC, priority 2020, dated 2025)", "data": [{"test_system": "BRD pathogens, M. haemolytica and P. multocida", "test": "MIC screening panel of BRD pathogens (antibacterial / non-antibacterial)", "settings": "Table J, Formula (1-A1b) compounds", "values": [{"compound": "1-((2S,3R,4S,6R)-2-(((2R,3S,4R,5R,8R,10R,11R,12S,13S,14R)-2-ethyl-3,4,10-trihydroxy-13-(((2R,4R,5S,6S)-5-hydroxy-4-methoxy-4,6-dimethyl-5-((4-(trifluoromethyl)piperazin-1-yl)methyl)tetrahydro-2H-pyran-2-yl)oxy)-3,5,8,10,12,14-hexamethyl-15-oxo-1-oxa-6-azacyclopentadecan-11-yl)oxy)-3-hydroxy-6-methyltetrahydro-2H-pyran-4-yl)-1,3-dimethyl-3-phenylurea [Example J-14]", "MIC ≤64 μg/mL for at least one of the bacterial strains (flag * at Ex #)": "J-14* (*MIC ≤64 μg/mL for at least one of the bacterial strains)"}]}, {"test_system": "BRD pathogens, M. haemolytica and P. multocida", "test": "MIC screening panel of BRD pathogens (antibacterial / non-antibacterial)", "settings": "read-out: antibacterial / non-antibacterial (MIC for the BRD pathogens)", "units": {"MIC": "µg/mL"}, "values": [{"compound": "CC[C@H]1OC(=O)[C@H](C)[C@@H](O)[C@H](C)[C@@H](O[C@@H]2O[C@H](C)C[C@H](N(C)C(=O)Nc3ncccn3)[C@H]2O)[C@](C)(O)C[C@@H](C)CN[C@H](C)[C@@H](O)[C@]1(C)O", "note": "[Example A-1, 1-((2S,3R,4S,6R)-2-(((2R,3S,4R,5R,8R,10R,11R,12S,13S,14R)-2-ethyl-3,4,10,13-tetrahydroxy-3,5,8,10,12,14-hexamethyl-15-oxo-1-oxa-6-azacyclopentadecan-11-yl)oxy)-3-hydroxy-6-methyltetrahydro-2H-pyran-4-yl)-1-methyl-3-(pyrimidin-2-yl)urea]", "MIC": "> 64"}, {"compound": "CC[C@H]1OC(=O)[C@H](C)[C@@H](O)[C@H](C)[C@@H](O[C@@H]2O[C@H](C)C[C@H](N(C)C(=O)Nc3cnccn3)[C@H]2O)[C@](C)(O)C[C@@H](C)CN[C@H](C)[C@@H](O)[C@]1(C)O", "note": "[Example A-2, 1-((2S,3R,4S,6R)-2-(((2R,3S,4R,5R,8R,10R,11R,12S,13S,14R)-2-ethyl-3,4,10,13-tetrahydroxy-3,5,8,10,12,14-hexamethyl-15-oxo-1-oxa-6-azacyclopentadecan-11-yl)oxy)-3-hydroxy-6-methyltetrahydro-2H-pyran-4-yl)-1-methyl-3-(pyrazin-2-yl)urea]", "MIC": "> 64"}, {"compound": "CC[C@H]1OC(=O)[C@H](C)[C@@H](O)[C@H](C)[C@@H](O[C@@H]2O[C@H](C)C[C@H](N(C)C(=O)Nc3ccccn3)[C@H]2O)[C@](C)(O)C[C@@H](C)CN[C@H](C)[C@@H](O)[C@]1(C)O", "note": "[Example A-3, 1-((2S,3R,4S,6R)-2-(((2R,3S,4R,5R,8R,10R,11R,12S,13S,14R)-2-ethyl-3,4,10,13-tetrahydroxy-3,5,8,10,12,14-hexamethyl-15-oxo-1-oxa-6-azacyclopentadecan-11-yl)oxy)-3-hydroxy-6-methyltetrahydro-2H-pyran-4-yl)-1-methyl-3-(pyridin-2-yl)urea]", "MIC": "> 64"}, {"compound": "CC[C@H]1OC(=O)[C@H](C)[C@@H](O)[C@H](C)[C@@H](O[C@@H]2O[C@H](C)C[C@H](N(C)C(=O)Nc3cccnc3)[C@H]2O)[C@](C)(O)C[C@@H](C)CN[C@H](C)[C@@H](O)[C@]1(C)O", "note": "[Example A-4, 1-((2S,3R,4S,6R)-2-(((2R,3S,4R,5R,8R,10R,11R,12S,13S,14R)-2-ethyl-3,4,10,13-tetrahydroxy-3,5,8,10,12,14-hexamethyl-15-oxo-1-oxa-6-azacyclopentadecan-11-yl)oxy)-3-hydroxy-6-methyltetrahydro-2H-pyran-4-yl)-1-methyl-3-(pyridin-3-yl)urea]", "MIC": "> 64"}, {"compound": "CC[C@H]1OC(=O)[C@H](C)[C@@H](O)[C@H](C)[C@@H](O[C@@H]2O[C@H](C)C[C@H](N(C)C(=O)Nc3cnn(C)c3)[C@H]2O)[C@](C)(O)C[C@@H](C)CN[C@H](C)[C@@H](O)[C@]1(C)O", "note": "[Example A-6, 1-((2S,3R,4S,6R)-2-(((2R,3S,4R,5R,8R,10R,11R,12S,13S,14R)-2-ethyl-3,4,10,13-tetrahydroxy-3,5,8,10,12,14-hexamethyl-15-oxo-1-oxa-6-azacyclopentadecan-11-yl)oxy)-3-hydroxy-6-methyltetrahydro-2H-pyran-4-yl)-1-methyl-3-(1-methyl-1H-pyrazol-4-yl)urea]", "MIC": "> 64"}, {"compound": "CC[C@H]1OC(=O)[C@H](C)[C@@H](O)[C@H](C)[C@@H](O[C@@H]2O[C@H](C)C[C@H](N(C)C(=O)Nc3cc(C)n(C)n3)[C@H]2O)[C@](C)(O)C[C@@H](C)CN[C@H](C)[C@@H](O)[C@]1(C)O", "note": "[Example A-7, 3-(1,5-dimethyl-1H-pyrazol-3-yl)-1-((2S,3R,4S,6R)-2-(((2R,3S,4R,5R,8R,10R,11R,12S,13S,14R)-2-ethyl-3,4,10,13-tetrahydroxy-3,5,8,10,12,14-hexamethyl-15-oxo-1-oxa-6-azacyclopentadecan-11-yl)oxy)-3-hydroxy-6-methyltetrahydro-2H-pyran-4-yl)-1-methylurea]", "MIC": "> 64"}, {"compound": "CC[C@H]1OC(=O)[C@H](C)[C@@H](O)[C@H](C)[C@@H](O[C@@H]2O[C@H](C)C[C@H](N(C)C(=O)Nc3ccc(C#N)cc3)[C@H]2O)[C@](C)(O)C[C@@H](C)CN[C@H](C)[C@@H](O)[C@]1(C)O", "note": "[Example A-9, 3-(4-cyanophenyl)-1-((2S,3R,4S,6R)-2-(((2R,3S,4R,5R,8R,10R,11R,12S,13S,14R)-2-ethyl-3,4,10,13-tetrahydroxy-3,5,8,10,12,14-hexamethyl-15-oxo-1-oxa-6-azacyclopentadecan-11-yl)oxy)-3-hydroxy-6-methyltetrahydro-2H-pyran-4-yl)-1-methylurea]", "MIC": "> 64"}, {"compound": "CC[C@H]1OC(=O)[C@H](C)[C@@H](O)[C@H](C)[C@@H](O[C@@H]2O[C@H](C)C[C@H](N(C)C(=O)Nc3cccc(C(F)(F)F)c3)[C@H]2O)[C@](C)(O)C[C@@H](C)CN[C@H](C)[C@@H](O)[C@]1(C)O", "note": "[Example A-10, 1-((2S,3R,4S,6R)-2-(((2R,3S,4R,5R,8R,10R,11R,12S,13S,14R)-2-ethyl-3,4,10,13-tetrahydroxy-3,5,8,10,12,14-hexamethyl-15-oxo-1-oxa-6-azacyclopentadecan-11-yl)oxy)-3-hydroxy-6-methyltetrahydro-2H-pyran-4-yl)-1-methyl-3-(3-(trifluoromethyl)phenyl)urea]", "MIC": "> 64"}, {"compound": "CC[C@H]1OC(=O)[C@H](C)[C@@H](O)[C@H](C)[C@@H](O[C@@H]2O[C@H](C)C[C@H](N(C)C(=O)Nc3cccc(C#N)c3)[C@H]2O)[C@](C)(O)C[C@@H](C)CN[C@H](C)[C@@H](O)[C@]1(C)O", "note": "[Example A-11, 3-(3-cyanophenyl)-1-((2S,3R,4S,6R)-2-(((2R,3S,4R,5R,8R,10R,11R,12S,13S,14R)-2-ethyl-3,4,10,13-tetrahydroxy-3,5,8,10,12,14-hexamethyl-15-oxo-1-oxa-6-azacyclopentadecan-11-yl)oxy)-3-hydroxy-6-methyltetrahydro-2H-pyran-4-yl)-1-methylurea]", "MIC": "> 64"}, {"compound": "CC[C@H]1OC(=O)[C@H](C)[C@@H](O)[C@H](C)[C@@H](O[C@@H]2O[C@H](C)C[C@H](N(C)C(=O)Nc3ccccc3Cl)[C@H]2O)[C@](C)(O)C[C@@H](C)CN[C@H](C)[C@@H](O)[C@]1(C)O", "note": "[Example A-12, 3-(2-chlorophenyl)-1-((2S,3R,4S,6R)-2-(((2R,3S,4R,5R,8R,10R,11R,12S,13S,14R)-2-ethyl-3,4,10,13-tetrahydroxy-3,5,8,10,12,14-hexamethyl-15-oxo-1-oxa-6-azacyclopentadecan-11-yl)oxy)-3-hydroxy-6-methyltetrahydro-2H-pyran-4-yl)-1-methylurea]", "MIC": "> 64"}, {"compound": "CC[C@H]1OC(=O)[C@H](C)[C@@H](O)[C@H](C)[C@@H](O[C@@H]2O[C@H](C)C[C@H](N(C)C(=O)Nc3ccccc3C)[C@H]2O)[C@](C)(O)C[C@@H](C)CN[C@H](C)[C@@H](O)[C@]1(C)O", "note": "[Example A-14, 1-((2S,3R,4S,6R)-2-(((2R,3S,4R,5R,8R,10R,11R,12S,13S,14R)-2-ethyl-3,4,10,13-tetrahydroxy-3,5,8,10,12,14-hexamethyl-15-oxo-1-oxa-6-azacyclopentadecan-11-yl)oxy)-3-hydroxy-6-methyltetrahydro-2H-pyran-4-yl)-1-methyl-3-(o-tolyl)urea]", "MIC": "> 64"}, {"compound": "CC[C@H]1OC(=O)[C@H](C)[C@@H](O)[C@H](C)[C@@H](O[C@@H]2O[C@H](C)C[C@H](N(C)C(=O)Nc3ccc(C(F)(F)F)cc3)[C@H]2O)[C@](C)(O)C[C@@H](C)CN[C@H](C)[C@@H](O)[C@]1(C)O", "note": "[Example A-15, 1-((2S,3R,4S,6R)-2-(((2R,3S,4R,5R,8R,10R,11R,12S,13S,14R)-2-ethyl-3,4,10,13-tetrahydroxy-3,5,8,10,12,14-hexamethyl-15-oxo-1-oxa-6-azacyclopentadecan-11-yl)oxy)-3-hydroxy-6-methyltetrahydro-2H-pyran-4-yl)-1-methyl-3-(4-(trifluoromethyl)phenyl)urea]", "MIC": "> 64"}, {"compound": "CC[C@H]1OC(=O)[C@H](C)[C@@H](O)[C@H](C)[C@@H](O[C@@H]2O[C@H](C)C[C@H](N(C)C(=O)Nc3ccccc3C(F)(F)F)[C@H]2O)[C@](C)(O)C[C@@H](C)CN[C@H](C)[C@@H](O)[C@]1(C)O", "note": "[Example A-16, 1-((2S,3R,4S,6R)-2-(((2R,3S,4R,5R,8R,10R,11R,12S,13S,14R)-2-ethyl-3,4,10,13-tetrahydroxy-3,5,8,10,12,14-hexamethyl-15-oxo-1-oxa-6-azacyclopentadecan-11-yl)oxy)-3-hydroxy-6-methyltetrahydro-2H-pyran-4-yl)-1-methyl-3-(2-(trifluoromethyl)phenyl)urea]", "MIC": "> 64"}, {"compound": "CC[C@H]1OC(=O)[C@H](C)[C@@H](O)[C@H](C)[C@@H](O[C@@H]2O[C@H](C)C[C@H](N(C)C(=O)Nc3ccccc3F)[C@H]2O)[C@](C)(O)C[C@@H](C)CN[C@H](C)[C@@H](O)[C@]1(C)O", "note": "[Example A-17, 1-((2S,3R,4S,6R)-2-(((2R,3S,4R,5R,8R,10R,11R,12S,13S,14R)-2-ethyl-3,4,10,13-tetrahydroxy-3,5,8,10,12,14-hexamethyl-15-oxo-1-oxa-6-azacyclopentadecan-11-yl)oxy)-3-hydroxy-6-methyltetrahydro-2H-pyran-4-yl)-3-(2-fluorophenyl)-1-methylurea]", "MIC": "> 64"}, {"compound": "CC[C@H]1OC(=O)[C@H](C)[C@@H](O)[C@H](C)[C@@H](O[C@@H]2O[C@H](C)C[C@H](N(C)C(=O)Nc3ccc(F)cc3)[C@H]2O)[C@](C)(O)C[C@@H](C)CN[C@H](C)[C@@H](O)[C@]1(C)O", "note": "[Example A-18, 1-((2S,3R,4S,6R)-2-(((2R,3S,4R,5R,8R,10R,11R,12S,13S,14R)-2-ethyl-3,4,10,13-tetrahydroxy-3,5,8,10,12,14-hexamethyl-15-oxo-1-oxa-6-azacyclopentadecan-11-yl)oxy)-3-hydroxy-6-methyltetrahydro-2H-pyran-4-yl)-3-(4-fluorophenyl)-1-methylurea]", "MIC": "> 64"}]}]}
